From PMC12700550, “DLL4^+ neutrophils promote Notch1-mediated endothelial PANoptosis to exacerbate acute lung injury in sepsis” (The Journal of Clinical Investigation, 2025)
“And” between values parts separate entries of the source, which are not always exact repeats. Equal values may be shown once.

What was measured:
[1] = test system: ZBP1; assay: ZBP1 mRNA in PVECs cocultured with neutrophils, RT-PCR (DAPT, NDI, peptides 1–5); assay type: cell-based, mouse; set-up: key to ZBP1 mRNA expression (Figure 4E): fold change in mRNA vs sham group; conditions: for ZBP1 mRNA expression (Figure 4E): 10 μM peptide, relative mRNA, β-actin normalized, individual replicates
Procedure: Immortalized mouse (Mus musculus) lung endothelial cells with polyoma middle T (PVECs) were purchased from Applied Biological Materials Inc. (ABM) and grown in 1:1 PriGrow VI Medium and PriGrow IV Medium (ABM).
(§1) Wild-type PVECs (5 × 10^5) were cocultured with sorted DLL4^+ neutrophils (5 × 10^5) or DLL4^– neutrophils (5 × 10^5) and then treated with different dosages of peptides or 10 μM DAPT (Thermo Fisher Scientific), 10 μM NDI (GenScript), or 10 μM NDI scramble (GenScript). Notch1-knockdown PVECs (5 × 10^5) were cocultured with sorted DLL4^+ neutrophils (5 × 10^5). After 16 hours, neutrophils were washed away by PBS, and PVECs were collected for further experiments. Cell viability was evaluated by propidium iodide staining using the FITC Annexin V Apoptosis Detection Kit I (catalog 556547, BD Pharmingen). Cell death was quantified as the percentage of propidium iodide–positive cells by flow cytometry.
mRNA was extracted from lung tissues with TRIzol reagent (Invitrogen, Thermo Fisher Scientific). An equal amount ([…]) of mRNA was reverse-transcribed into cDNA using the reverse transcriptase enzyme (Invitrogen, Thermo Fisher Scientific). qPCR was performed from the diluted cDNA templates with forward and reverse primers (Supplemental Table 4) and SYBR Green PCR Master Mix (Applied Biosystems, Thermo Fisher Scientific) using an Applied Biosystems 7300 real-time PCR machine. Mouse β-actin served as an internal control gene for normalization. Relative expression of mRNA was represented as fold change in comparison with the sham group.

[2] = test system: KC; assay: Lung keratinocyte chemoattractant (KC) mRNA, CLP mice; assay type: in vivo, mouse; conditions: 20 h; for lung KC mRNA (Figure 6H): 10 mg/kg NDI, vs sham, individual mice
Procedure: Sepsis was induced in mice by cecal ligation and puncture (CLP) as described previously ([45], [46]). Mice were anesthetized with isoflurane to a surgical plane and placed in a supine position. CLP was performed through a midline laparotomy. The abdomen was shaved and disinfected. Through a 2 cm midline incision, the cecum was exposed and then ligated with a 4-0 silk suture 1 cm proximal from the distal cecal extremity. For 20-hour CLP experiments, the cecum was punctured twice with a 22-gauge needle. A small amount of cecal content was extruded through both holes, and the ligated cecum was returned to the peritoneal cavity. The wound was closed in layers. For 10-day sepsis survival studies, the cecum was punctured once with a 22-gauge needle. A small amount of cecal content was extruded. Mice were allocated to the vehicle and adoptive transfer of DLL4^+ neutrophils or DLL4^– neutrophils groups. Adoptive transfer mice received a retro-orbital injection of 1 × 10^6 cells per mouse DLL4^+ neutrophils or DLL4^– neutrophils in […] phosphate-buffered saline (PBS) immediately after abdominal closure in both the 20-hour experiments and the survival study. Vehicle groups received an equivalent volume of PBS, while treatment groups received NDI 10 mg/kg in […] PBS via retro-orbital injection after CLP. This dose was chosen primarily on the basis of our laboratory’s prior experience, we have consistently used this dose in mouse CLP models with reproducible efficacy and without observable toxicity ([39], [44]). Sham-operated animals underwent a laparotomy without CLP. After closure, the mice received a subcutaneous injection of 0.5 mL of normal saline to overcome surgery-induced dehydration. For 20-hour experiments, animals were not injected with antibiotics; however, for survival studies, animals were given 0.5 mg per kg body weight imipenem (lot 4D21K05, WG Critical Care LLC) subcutaneously in 0.5 mL saline once at the end of CLP. All mice were subcutaneously injected with a single dose of 0.1 mg/kg buprenorphine after CLP. […]

[3] = test system: p-MLKL; assay: p-MLKL/MLKL (necroptosis) in PVECs cocultured with neutrophils, Western blot; assay type: cell-based, mouse; conditions: for p-MLKL/MLKL (Figure 4I): 10 μM peptide, 16 h, individual replicates
Procedure: as §1
PVECs and lung tissue were collected in previous steps. Whole-cell proteins were extracted, and the protein concentration was measured using an ABC protein assay kit (catalog 5000002, Bio-Rad). Proteins were separated using NuPAGE 4%–12% Bis-Tris gels (Invitrogen), transferred to PVDF membranes, and immunoblotted with the antibodies indicated in the figure legends according to the manufacturer’s recommendations. The ZBP1 antibody (catalog PA5-20455; 1:1,000) used in this study was obtained from Thermo Fisher Scientific, and the c-GSDMD (catalog 10137S; 1:250), GSDMD (catalog 39754S; 1:1000), c-caspase-3 (catalog 9661L; 1:250), caspase-3 (catalog 9662S; 1:1,000), p-MLKL (catalog 37333S; 1:250), MLKL (catalog 37705S; 1:1,000), N1ICD (c-Notch1) (catalog 4147S; 1:250), and Notch1 (catalog 3608S; 1:1,000) antibodies were obtained from Cell Signaling Technology. GAPDH (catalog 60004-1-Ig; 1:10,000) and β-actin (catalog A5441, Sigma-Aldrich; 1:5,000) were obtained from ProteinTech. After the blots were incubated with primary antibodies, the membranes were washed 3 times, and the blots were subsequently incubated with the corresponding fluorescent secondary antibody (LI-COR). Bands were detected using an Odyssey FC Dual-Mode Imaging system 2800 (LI-COR).

[4] = test system: C57BL/6 mice, CLP sepsis; assay: Serum lactate dehydrogenase (LDH), CLP mice; assay type: in vivo, mouse; set-up: serum LDH (Figure 6C): unit not given here; conditions: 20 h; for serum LDH (Figure 6C): 10 mg/kg NDI, individual mice
Procedure: Sepsis was induced in mice by cecal ligation and puncture (CLP) as described previously ([45], [46]). Mice were anesthetized with isoflurane to a surgical plane and placed in a supine position. CLP was performed through a midline laparotomy. The abdomen was shaved and disinfected. Through a 2 cm midline incision, the cecum was exposed and then ligated with a 4-0 silk suture 1 cm proximal from the distal cecal extremity. […] A small amount of cecal content was extruded through both holes, and the ligated cecum was returned to the peritoneal cavity. The wound was closed in layers. […] A small amount of cecal content was extruded. […] Vehicle groups received an equivalent volume of PBS, while treatment groups received NDI 10 mg/kg in […] PBS via retro-orbital injection after CLP. This dose was chosen primarily on the basis of our laboratory’s prior experience, we have consistently used this dose in mouse CLP models with reproducible efficacy and without observable toxicity ([39], [44]). Sham-operated animals underwent a laparotomy without CLP. After closure, the mice received a subcutaneous injection of 0.5 mL of normal saline to overcome surgery-induced dehydration. […] All mice were subcutaneously injected with a single dose of 0.1 mg/kg buprenorphine after CLP. Serum levels of alanine aminotransferase, aspartate aminotransferase, and lactate dehydrogenase were determined using specific colorimetric enzymatic assays (Pointe Scientific Inc.) according to the manufacturer’s instructions.

[5] = 10 μM NDI, DLL4^+ neutrophil coculture
[6] = DLL4^+ neutrophil-injected CLP mice, 10 mg/kg

## ECAGSPCHNGGTCEDGI [NDI]
[1]; [5]
  effect on ZBP1 mRNA: significantly attenuated by NDI treatment
[1]; DLL4^+ neutrophil coculture, 16 h
  ZBP1 mRNA expression (Figure 4E): 1.415 and 1.669 and 3.8174 and 1.677 and 1.56 and 2.849 and 9.163 and 6.321 and 1.561 and 1.421 and 1.212 and 1.283 and 1.413 and 1.3501
[1]; DLL4^– neutrophil coculture, 16 h
  ZBP1 mRNA expression (Figure 4E): 1.952 and 2.343 and 4.227 and 9.382 and 4.404 and 4.151 and 12.0095 and 11.4783 and 1.027 and 3.606 and 3.156 and 1.889 and 1.85 and 3.13
[1]; PVECs cocultured with DLL4^+ neutrophils, varying concentrations of peptide, 16 h, n=10/group
  effect on ZBP1 mRNA: significantly reduced ZBP1 expression
[1]; among the tested peptides
  inhibition of DLL4^+ neutrophil–induced PANoptosis in PVECs, by reduced ZBP1 expression: most effectively inhibited
[1]; dose-response, PVECs cocultured with DLL4^+ neutrophils
  effective concentration for ZBP1 inhibition: 10 µM
[2]; [6]
  effect on lung KC mRNA: significantly decreased the mRNA expression of TNF-α, IL-6, and KC in lung tissues
[2]; DLL4^+ neutrophils + CLP
  lung KC mRNA (Figure 6H): 5.903 fold change and 0.6661 fold change and 4.862 fold change and 4.727 fold change and 4.686 fold change and 3.906 fold change and 2.6276 fold change and 0.3013 fold change and 7.635 fold change and 2.927 fold change and 2.999 fold change and 5.493 fold change and 8.856 fold change and 7.751 fold change and 5.829 fold change and 6.917 fold change
[2]; DLL4^– neutrophils + CLP
  lung KC mRNA (Figure 6H): 5.187 fold change and 6.094 fold change and 6.9598 fold change and 7.18 fold change and 9.417 fold change and 3.542 fold change and 4.905 fold change and 5.1155 fold change and 3.48 fold change and 3.364 fold change
[3]; [5]
  effect on p-MLKL: significantly reduced these markers of PANoptosis
[3]; DLL4^+ neutrophil coculture
  p-MLKL/MLKL (Figure 4I): 1.115 and 1.398 and 1.246 and 1.299 and 0.9429 and 1.577 and 2.352
[3]; DLL4^– neutrophil coculture
  p-MLKL/MLKL (Figure 4I): 0.4818 and 0.8655 and 0.6799 and 0.9484
[4]; [6]
  effect on serum LDH: significantly reduced the serum levels of hepatic and cell injury markers and proinflammatory cytokines
[4]; DLL4^+ neutrophils + CLP
  serum LDH (Figure 6C): 147.333 and 112.563 and 68.952 and 111.973 and 140.948 and 125.756 and 107.496 and 149.824 and 137.164 and 20.8187 and 17.4427 and 47.264 and 66.5947 and 58.344 and 58.9333 and 52.4507 and 35.9493
[4]; DLL4^– neutrophils + CLP
  serum LDH (Figure 6C): 149.691 and 73.0773 and 124.349 and 178.568 and 24.752 and 44.7893 and 34.7707 and 33.0027 and 50.0933
